Measured values taken from ChEMBL document CHEMBL3132839, “Discovery of BET bromodomain inhibitors and their role in target validation” (Medchemcomm, 2014).

Target: Bromodomain-containing protein 4 (Homo sapiens, UniProt O60885)
Test: Inhibition of BRD4(1) (unknown origin) by Alpha screen binding assay

IC50 [mM]	SMILES
7	CNC(=O)[C@H](CCCCNC(C)=O)NC
280	C[S+](C)[O-] [DIMETHYL SULFOXIDE]
